From patent publication US20100093645A1, “SMAC Peptidomimetics and the Uses Thereof” (priority 2004, published 2010)
Square brackets hold non-standard residues; d marks the D form. Peptide text beside a SMILES is read from it. Abu = CC[C@H](N)C(=O)O

Key:
[1] = target: T1, human XIAP-BIR3 protein (residues 241-356) (Homo sapiens, UniProt P98170); experiment: biochemical
[2] = target: T1, human XIAP-BIR3 protein (residues 241-356); experiment: Competitive fluorescence polarization (FP-based) binding assay with SM5F probe; conditions: SM5 vs S9
Target sequence in this assay (P98170 241-356): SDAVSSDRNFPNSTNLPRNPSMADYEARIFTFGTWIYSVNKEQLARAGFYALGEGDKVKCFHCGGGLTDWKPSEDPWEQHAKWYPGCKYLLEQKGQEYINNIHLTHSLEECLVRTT

XIAP = XIAP (Homo sapiens, UniProt P98170); conditions: background statement; cited from earlier work
Chain of XIAP (P98170 whole entry): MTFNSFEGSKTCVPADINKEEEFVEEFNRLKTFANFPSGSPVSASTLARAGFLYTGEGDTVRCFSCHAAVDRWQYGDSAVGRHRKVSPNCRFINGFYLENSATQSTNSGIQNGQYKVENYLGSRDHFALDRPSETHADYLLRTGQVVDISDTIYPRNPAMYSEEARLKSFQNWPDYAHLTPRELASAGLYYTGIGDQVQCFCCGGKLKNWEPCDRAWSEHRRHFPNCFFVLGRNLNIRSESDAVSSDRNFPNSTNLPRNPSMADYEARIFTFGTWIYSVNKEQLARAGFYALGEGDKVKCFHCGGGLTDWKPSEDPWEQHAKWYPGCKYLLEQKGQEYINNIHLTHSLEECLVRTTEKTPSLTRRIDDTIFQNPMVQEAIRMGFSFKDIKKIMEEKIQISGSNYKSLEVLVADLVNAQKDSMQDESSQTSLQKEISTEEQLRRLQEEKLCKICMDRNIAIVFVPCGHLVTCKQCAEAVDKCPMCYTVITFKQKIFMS

| IC50 [1] [nM] | Ki [1] [nM] | ratio of the IC50 values for unlabeled SM5 and S9 [2] [fold] | Molecule | Kd (XIAP) [nM] |
| --- | --- | --- | --- | --- |
| 220 ± 10 | 75 ± 5 | 6.7 | CC[C@H](N)C(=O)N[C@@H](CCCNC(=N)N)C(=O)N1CCC[C@H]1C(=O)N[C@@H](Cc1ccccc1)C(=O)N[C@@H](CCCCN)C(=O)O [SM5, AbuRPFK, reference compound] (H-[Abu]RPFK-OH; N-terminus and C-terminus assumed) |  |
|  |  |  | mature Smac protein: second mitochondria-derived activator of caspases, mature polypeptide (protein, UniProt Q9NR28 22-239, looked up) Diablo IAP-binding …: LCVPVVANFKKRCFSELIRPWHKTVTIGFGVTLCAVPIAQKSEPHSLSSEALMRRAVSLVTDSTSTFLSQTTYALIEAITEYTKAVYTLTSLYRQYTSLLGKMNSEEEDEVWQVIIGARAEMTSKHQEYLKLETTWMTAVGLSEMAAEAAYQTGADQASITARNHIQLVKLQVEEVHQLSRKAETKLAEAQIEELRQKTQEEGEERAESEQEAYLRED | 420 |
